Data set [1] relates to C4-2 PSMA positive human prostate cells xenografts. The experiment in a line: Comparative therapy experiment in nude mice with C4-2 xenografts. In kind it is in vivo. The conditions noted are these: 52 MBq ^177Lu-PSMA-617 or 320 kBq ^212Pb-ligand 1. Here is the method: Male nude mice were inoculated in the flanks with C4-2 PSMA positive human prostate cells and 2 weeks later when tumors were 5-7 mm in diameters. Groups of 8 animals each received saline, 52 MBq of ^177Lu-PSMA-617 or 320 kBq of ^212Pb-p-SCN-Bn-TCMC-PSMA ligand 1. Animals were sacrificed when tumor size reached 20 mm due to animal welfare requirements. […] For ^212Pb the effective half-life was assumed to be 10.6 h, 10% of injected dose per gram decays in tumor and 100% of radiation in a tumor is absorbed in the tumor, 100% retention of ^212Pb and daughters in the tumors and 8 MeV radiation energy per decay. The tumor dosimetry for the injected activities gave on average 35.9 Gy to tumors for ^177Lu-PSMA-617 and 2.06 Gy to tumors for ^212Pb-p-SCN-Bn-TCMC-PSMA ligand 1 groups respectively.

Data set [2] deals with C4-2 PSMA-positive xenografts. The experiment in a line: Biodistribution of radiolabelled ligands (^224Ra/^212Pb solutions, ^177Lu) in nude mice with C4-2 xenografts. Here is the method:
Each group usually consisted of three mice. […] Approximately 16 kBq of ^224Ra/^212Pb was injected in each animal, i.e., approximately 0.2 nmol of ligand per mouse. Animals were given anaesthesia and sacrificed by cervical dislocation followed by dissection and harvesting of tissue-, blood- and urine samples. The samples were weighed and counted on a gamma counter.
Three mice in each group. […] The molar concentration was the same for both products, i.e., 12.5 nmol per MBq. Approximately 16 kBq of ^224Ra/^212Pb was injected in each animal, i.e., approximately 0.2 nmol of ligand per mouse. Animals were given anaesthesia and sacrificed by cervical dislocation followed by dissection and harvesting of tissue-, blood- and urine samples. The samples were weighed and counted on a gamma counter.
Methods: Tumor and kidney uptake of ^212Pb-labeled p-SCN-Bn-TCMC-PSMA ligand 1 and ^177Lu-labeled PSMA-617 was compared at 1 hours and 4 hours after administration of the products by intravenous injection into nude mice with C4-2 xenografts as described in Example 9.

In a further data set the test system is PC3 PIP model. The following applies: mouse xenografts, model used by other researchers; cited from earlier work.
Data set [3] is described as follows: Stability testing of ^212Pb-labeled ligands in vitro (TLC radiochemical purity in PBS and FBS). In kind it is physicochemical. The conditions noted are these: 37° C. Here is the method: Thin layer chromatography (TLC) was performed using chromatography strips (model #150-772, Biodex Medical Systems Inc, Shirley, N.Y., USA). A formulation buffer (FB) consisting of 7.5% human serum albumin and 5 mM EDTA in DPBS and adjusted to approximately pH 7 with NaOH was mixed with the antibody conjugates in ratio 2:1 for at least 5 minutes before application to the strips to determine free radionuclide. A small beaker with about 0.5 ml of 0.9% NaCl was used to place strips with a sample spot in. To the strip was typically added 1-4 μl of sample at approximately 10% above the bottom of the strip. After the solvent front had moved to about 20% from the top of the strip, the strip was cut in half and each half was placed in a 5 ml test tube for counting. In this system radiolabeled ligand stays at the bottom half while radionuclide complexed with EDTA migrates to the upper half. It was verified that free cations of both ^212Pb and ^177Lu would complex with EDTA and moved to the top.
TLC analyses were performed at 1 h, 4 h, 24 h and 48 h of incubation. […]

A further data set has as its system C4-2 cells. Nature of the data set: Prostate cancer cell binding of ^212Pb-labeled ligands. Further details: species or system human. The following applies: labeled with ^212Pb. Here is the method:
The cell binding fractions measured by adding about 1 ng of radioligand to 0.2 ml of C4-2 cells (5×10^7 cells per ml) in a 5 ml test tube and incubate for 1 h before measuring applied activity, wash cells 3 times with 0.5 ml 0.5% bovine serum albumin in DPBS and thereafter recount the washed cell pellet. […] Nonspecific binding was measured by blocking the cells with excess 10 μg/ml of unlabelled ligand before adding radioligand.

Structures are written as SMILES.

`O=C([O-])CN1CCN(CC(=O)[O-])CCN(CC(=O)NCC2CCC(C(=O)N[C@@H](Cc3ccc4ccccc4c3)C(=O)NCCCC[C@H](NC(=O)N[C@@H](CCC(=O)O)C(=O)O)C(=O)O)CC2)CCN(CC(=O)[O-])CC1.[177Lu+3]` (some centres unmarked) [^177Lu-PSMA-617, reference compound]: the “Survival at day 30 after treatment” value in data set [1] (groups of 8, saline group 0%) worked out at 12.5%. The same molecule had a Median survival in data set [1] (saline group 15 days) of 20 days. Moreover, the Average tumor-to-kidney ratio in data set [2] (1-hour point after administration) was found to be 0.17. Moreover, the Tumor-to-kidney ratio in data set [2] (4-hour timepoint) amounted to 0.8. Further, in data set [2] (4 hours after i.v. injection), the “Kidney uptake (average)” value stood at 17.4 % ID/g and the “Tumor uptake (average)” value is reported as 13.6 % ID/g. Also, the “Typical PSMA-ligand uptake of the xenograft model used” value in data set [2] (mouse xenografts, tumor model with intermediary level of uptake) is recorded as 10-15 % ID/g. The “Typical uptake in PC3 PIP model” value in the data set on PC3 PIP model is on record as 30-40 % ID/g.
Take `O=C(O)CCC(NC(=O)NC(CCCCNC(=O)C(Cc1ccc2ccccc2c1)NC(=O)C1CCC(CNC(=O)CN2CCN(CC(=O)O)CCN(CC(=O)O)CCN(CC(=O)O)CC2)CC1)C(=O)O)C(=O)O.[212Pb+2]` (centres unmarked) [^212Pb-PSMA-617, reference compound]: the Radiochemical purity in data set [3] (FBS, 1 h since start of incubation, in ^224Ra/^212Pb solution) was 92.13%; in data set [3] (FBS, 4 h), 94.37%; in data set [3] (FBS, 24 h), 94.54%; in data set [3] (FBS, 48 h), 95.65%; in data set [3] (PBS, 1 h since start of incubation, in ^224Ra/^212Pb solution), 91.62%; in data set [3] (PBS, 4 h), 94.33%. Besides, the Radiochemical purity in data set [3] (PBS, 24 h) worked out at 93.26%; in data set [3] (PBS, 48 h) it was 93.17%.
Turning to `NC(=O)CN1CCN(CC(N)=O)CCN(CC(N)=O)C(Cc2ccc(NC(=S)NC[C@H]3CC[C@H](C(=O)N[C@@H](Cc4ccc5ccccc5c4)C(=O)NCCCC[C@H](NC(=O)N[C@@H](CCC(=O)O)C(=O)O)C(=O)O)CC3)cc2)CN(CC(N)=O)CC1` (stereo partly drawn) [p-SCN-Bn-TCMC-PSMA ligand 1, (((1S)-1-carboxy-5-((2S)-3-(naphthalen-2-yl)-2-((1r,4S)-4-((3-(4-((1,4,7,10-tetrakis(2-amino-2-oxoethyl)-1,4,7,10-tetraazacyclododecan-2-yl)methyl)phenyl)thioureido)methyl)cyclohexane-1-carboxamido)propanamido)pentyl)carbamoyl)-L-glutamic acid; trifloroacetic acid (1:4)], the “Difference in cell-binding versus radiolabelled PSMA-617” value with C4-2 cells is recorded as “No significant difference”.
